{"source": "paper PMC11912722", "about": "“Chikusetsusaponin IVa targeted YAP as an inhibitor to attenuate liver fibrosis and hepatic stellate cell activation” (Chinese Medicine, 2025)", "biological_target": "T1, YAP in LX-2 cells (Homo sapiens, UniProt P46937)", "T1 construct": "gene YAP1; endogenous full-length protein in LX-2 cells, detected by western blot (YAP antibody Cell Signaling 14074 T)", "T1 sequence (P46937 whole entry)": "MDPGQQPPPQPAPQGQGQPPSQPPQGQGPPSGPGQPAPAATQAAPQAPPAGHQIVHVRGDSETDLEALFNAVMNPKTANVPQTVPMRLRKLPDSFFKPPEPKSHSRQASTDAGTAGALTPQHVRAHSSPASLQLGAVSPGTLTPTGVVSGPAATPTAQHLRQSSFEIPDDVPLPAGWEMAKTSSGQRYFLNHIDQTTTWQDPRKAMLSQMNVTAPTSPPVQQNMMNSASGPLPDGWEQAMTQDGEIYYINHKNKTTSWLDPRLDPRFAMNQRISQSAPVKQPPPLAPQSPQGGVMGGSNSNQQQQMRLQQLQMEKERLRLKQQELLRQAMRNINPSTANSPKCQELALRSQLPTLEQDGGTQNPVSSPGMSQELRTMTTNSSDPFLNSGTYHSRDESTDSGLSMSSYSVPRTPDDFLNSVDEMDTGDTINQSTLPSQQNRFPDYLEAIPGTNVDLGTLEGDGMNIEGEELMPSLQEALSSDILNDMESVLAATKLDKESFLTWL", "assay": "CETSA, western blot", "assay_type": "cell-based", "conditions": "LX-2 cells incubated 24 h with 10 μmol/L CS-IVa, lysed, supernatant heated 45-75 °C for 3 min", "data": [{"smiles": "CC1(C)CC[C@]2(C(=O)O[C@@H]3O[C@H](CO)[C@@H](O)[C@H](O)[C@H]3O)CC[C@]3(C)C(=CC[C@@H]4[C@@]5(C)CC[C@H](O[C@@H]6O[C@H](C(=O)O)[C@@H](O)[C@H](O)[C@H]6O)C(C)(C)[C@@H]5CC[C@]43C)[C@@H]2C1", "note": "[CS-IVa]", "values": [{"measurement": "thermal stability (CETSA)", "result": "treatment with CS-IVa significantly increased the thermal stability of YAP"}]}]}
